Laboratory results as given in patent US8445636B2, “Antimicrobial and anticancer lipopeptides” (Yeda Research & Development Co. Ltd., priority 2003, dated 2013).
≈ marks a conversion by molar mass, not a printed value. Where two headings read alike, the source gives them in different places. Each block holds one compound with its values, some of them ahead of it. Non-standard residues stand in square brackets, D forms with d. Residues, ends and D or L forms follow the SMILES beside them. *: point of attachment. Palmitoyl = CCCCCCCCCCCCCCCC(=O)*; Lauroyl = CCCCCCCCCCCC(=O)*

Columns and labels:
Format in all cases: cell-based
[1] = tested on: E. coli D21; settings: for Minimal Inhibitory Concentration, E. coli-D21: D21, pH 7.4
[2] = tested on: Pseudomonas aeruginosa ATCC 27853; settings: for Minimal Inhibitory Concentration, P. aeruginosa ATCC 27853: ATCC 27853, pH 7.4
Description: (§1) The antibacterial activity of the lipopeptides was examined in sterile 96-well plates (Nunc F96 microtiter plates) in a final volume of 100 μl as follows: Aliquots (50 μl) of a suspension containing bacteria at concentration of 1×10^6 Colony-Forming Units (CFU)/ml in culture LB (Lauria broth) medium (pH 7.4 or pH 5.5) were added to 50 μl of water containing the lipopeptide in serial 2-fold dilutions in water. Adjustment of the pH was done by diluted solutions of HCl and NaOH Inhibition of growth was determined by measuring the absorbance at 600 nm with a Microplate autoreader E1309 (Bio-Tek Instruments), after an incubation time of 18-20 h at 37° C. Antibacterial activities were expressed as the minimal inhibitory concentration (MIC), the concentration at which 100% inhibition of growth was observed after 18-20 h of incubation. The bacteria used were: Escherichia coli ATCC 25922, Acinetobacter baumannii ATCC 19606, Pseudomonas aeruginosa ATCC 27853, Staphylococcus aureus ATCC 6538P, Enterococcus faecalis ATCC 29212, Enterobacter cloacae ATCC 49141. The antibacterial activity of lipopeptides was also examined against resistant bacteria: methicilin-resistant Staphylococcus aureus (MRSA) ATCC 700698 and vancomycin-resistant Enterococcus faecium (VRE) ATCC 700221. If not indicated otherwise, the bacterial growth was detected at pH 7.4.

[3] = tested on: Staphylococcus aureus ATCC 6538P; settings: for Minimal Inhibitory Concentration, S. aureus ATCC 6538P: ATCC 6538, pH 7.4
Description: as §1

[4] = tested on: Candida albicans ATCC 10231; assay: microbe, parasite or virus in culture
Description: (§2) The antifungal activity of the lipopeptides was examined in sterile 96-well plates (Nunc F96 microtiter plates) in a final volume of 200 μL as follows: 100 µl of a suspension containing fungi at a concentration of 1×10^4 Colony-Forming Units (CFU)/ml in culture medium (RPMI 1640, 0.165 M MOPS with L-glutamine, without NaHCO3) at pH 7.4 or pH 5.5 (adjustment of the pH was done by diluted solutions of HCl and NaOH) were added to 100 μl of water containing the peptide in serial 2-fold dilutions in water. The fungi were incubated in the presence of the lipopeptides for 24-48 h at 35° C. in a Binder KB115 incubator under agitation. Growth inhibition was determined by measuring the absorbance at 620 nm with a Microplate autoreader E1309 (Bio-Tek Instruments). Antifungal activity is expressed as the minimal inhibitory concentration (MIC), the concentration at which 100% inhibition of fungi growth was observed after the incubation time mentioned above. The fungi used were: Aspergillus niger ATCC 9642, Candida albicans ATCC 10231 and Cryptococcus neoformans ATCC 66031. If not indicated otherwise, the fungi growth was detected at pH 7.4.

[5] = tested on: Cryptococcus neoformans ATCC MYA-422; assay: microbe, parasite or virus in culture; settings: ATCC MYA-422, pH 7.4; read-out: Minimal Inhibitory Concentration, Cyrptococcus neoformans (ATCC MYA-422)
[6] = tested on: Aspergillus fumigatus ATCC 26430; assay: microbe, parasite or virus in culture
[7] = tested on: Acinetobacter baumannii ATCC 19606; settings: for Minimal Inhibitory Concentration, A. baumannii ATCC 19606: ATCC 19606, pH 7.4
Description: as §1

[8] = tested on: Escherichia coli ATCC 25922
Description: as §1

[9] = tested on: Cryptococcus neoformans ATCC 66031; assay: microbe, parasite or virus in culture
Description: as §2

[10] = ATCC 10231, pH 7.4, read-out: Minimal Inhibitory Concentration, Candida Albicans (ATCC 10231)
[11] = ATCC 26430, pH 7.4, read-out: Minimal Inhibitory Concentration, Aspergillus Fomigatus (ATCC 26430)

Compound: CCCCCCCCCCCCCCCC(=O)N[C@@H](CCCCN)C(=O)N[C@@H](CCCCN)C(=O)N[C@@H](CCCCN)C(=O)N[C@@H](CCCCN)C(N)=O [PA-KKKK] (Palmitoyl-KKKK-NH2)
Minimal Inhibitory Concentration, E. coli-D21 [1]: 12.5 µM
Minimal Inhibitory Concentration, P. aeruginosa ATCC 27853 [2]: 3.12 µM
Minimal Inhibitory Concentration, S. aureus ATCC 6538P [3]: 25 µM
MIC [4, 10]: 25 µM (≈ 19.2 µg/mL)
MIC [5]: 1.56 µM (≈ 1.2 µg/mL)
MIC [6, 11]: 12.5 µM (≈ 9.6 µg/mL)

Compound: CCCCCCCCCCCCCCCC(=O)N[C@@H](CCC(=O)O)C(=O)N[C@H](CCCCN)C(=O)N[C@@H](CCCCN)C(N)=O [PA-EKK, Palmitoyl-Glu-D-Lys-Lys-NH2] (Palmitoyl-Glu-[dK]-Lys-NH2)
Minimal Inhibitory Concentration, E. coli-D21 [1]: 100 µM
Minimal Inhibitory Concentration, A. baumannii ATCC 19606 [7]: >100 µM
Minimal Inhibitory Concentration, P. aeruginosa ATCC 27853 [2]: >100 µM
Minimal Inhibitory Concentration, S. aureus ATCC 6538P [3]: 25 µM
MIC [4, 10]: 25 µM (≈ 16 µg/mL)
MIC [5]: 12.5 µM (≈ 8.01 µg/mL)
MIC [6, 11]: 25 µM (≈ 16 µg/mL)

Compound: CCCCCCCCCCCCCCCC(=O)N[C@@H](CCCCN)C(=O)N[C@@H](CCC(=O)O)C(N)=O [PA-KE] (Palmitoyl-Lys-Glu-NH2)
Minimal Inhibitory Concentration, E. coli-D21 [1]: >100 µM
Minimal Inhibitory Concentration, A. baumannii ATCC 19606 [7]: >100 µM
Minimal Inhibitory Concentration, P. aeruginosa ATCC 27853 [2]: >100 µM
Minimal Inhibitory Concentration, S. aureus ATCC 6538P [3]: >100 µM
MIC [4, 10]: >100 µM
MIC [5]: >100 µM
MIC [6, 11]: >100 µM

Compound: CCCCCCCCCCCCCC(=O)N[C@@H](CCCCN)C(=O)N[C@@H](CCCCN)C(=O)N[C@@H](CCCCN)C(N)=O [MYR-KKK]
Minimal Inhibitory Concentration, E. coli-D21 [1]: 25 µM
Minimal Inhibitory Concentration, A. baumannii ATCC 19606 [7]: >100 µM
Minimal Inhibitory Concentration, S. aureus ATCC 6538P [3]: 12.5 µM
MIC [4, 10]: >100 µM
MIC [5]: 12.5 µM (≈ 7.65 µg/mL)
MIC [6, 11]: 100 µM (≈ 61.2 µg/mL)

Compound: CCCCCCCCCCCCCCCC(=O)N[C@@H](CCCNC(=N)N)C(=O)N[C@@H](CC(C)C)C(=O)N[C@H](CC(C)C)C(=O)N[C@@H](CCCNC(=N)N)C(N)=O [PA-RLLR, Palmitoyl-Arg-Leu-D-Leu-Arg-NH2] (Palmitoyl-RL[dL]R-NH2)
Minimal Inhibitory Concentration, E. coli-D21 [1]: >100 µM
Minimal Inhibitory Concentration, A. baumannii ATCC 19606 [7]: >100 µM
Minimal Inhibitory Concentration, P. aeruginosa ATCC 27853 [2]: >100 µM
Minimal Inhibitory Concentration, S. aureus ATCC 6538P [3]: 25 µM
MIC [4, 10]: 25 µM (≈ 19.9 µg/mL)
MIC [5]: 1.56 µM (≈ 1.24 µg/mL)
MIC [6, 11]: 6.25 µM (≈ 4.96 µg/mL)

Compound: CCCCCCCCCCCC(=O)N[C@H](CC(C)C)C(=O)N[C@@H](Cc1c[nH]cn1)C(=O)N[C@@H](Cc1c[nH]cn1)C(=O)N[C@H](CC(C)C)C(=O)N[C@H](CC(C)C)C(=O)N[C@@H](Cc1c[nH]cn1)C(=O)N[C@@H](Cc1c[nH]cn1)C(=O)N[C@H](CC(C)C)C(=O)N[C@H](CC(C)C)C(=O)N[C@@H](Cc1c[nH]cn1)C(=O)N[C@@H](Cc1c[nH]cn1)C(=O)N[C@H](CC(C)C)C(N)=O [lipopeptide 26, (CH3-(CH2)10-CO-)-D-Leu-His-His-D-Leu-D-Leu-His-His-D-Leu-D-Leu-His-His-D-Leu-NH2] (Lauroyl-[dL]HH[dL][dL]HH[dL][dL]HH[dL]-NH2)
Minimal inhibitory concentrations, E. Coli D21 ([1]; Table 6, pH 7.4): >100 µM
Minimal inhibitory concentrations, E. Coli D21 ([1]; Table 7, pH 5.5): 100 µM (≈ 170 µg/mL)
Minimal inhibitory concentrations, A. baumannii ATCC 19606 ([7]; Table 6, pH 7.4): 100 µM (≈ 170 µg/mL)
Minimal inhibitory concentrations, A. baumannii ATCC 19606 ([7]; Table 7, pH 5.5): >100 µM
Minimal inhibitory concentrations, E. Coli ATCC 25922 ([8]; Table 6, pH 7.4): >100 µM
Minimal inhibitory concentrations, E. Coli ATCC 25922 ([8]; Table 7, pH 5.5): >100 µM
Minimal inhibitory concentrations, P. Aeruginosa ATCC 27853 ([2]; Table 6, pH 7.4): >100 µM
Minimal inhibitory concentrations, P. Aeruginosa ATCC 27853 ([2]; Table 7, pH 5.5): 100 µM (≈ 170 µg/mL)
Minimal inhibitory concentrations, S. aureus II ATCC 6538P ([3]; Table 6, pH 7.4): 100 µM (≈ 170 µg/mL)
Minimal inhibitory concentrations, S. aureus II ATCC 6538P ([3]; Table 7, pH 5.5): >100 µM
MIC ([4]; Table 12, with serum, pH 7.4, read-out: Minimal inhibitory concentrations, C. Albicans With serum): >100 µM
MIC ([4]; Table 12, without serum, pH 7.4, read-out: Minimal inhibitory concentrations, C. Albicans Without serum): >100 µM
MIC ([4]; Table 13, pH 5.5, with serum, read-out: Minimal inhibitory concentrations, C. Albicans With serum): >100 µM
MIC ([4]; Table 13, pH 5.5, without serum, read-out: Minimal inhibitory concentrations, C. Albicans Without serum): 9.375 µM (≈ 15.9 µg/mL)
MIC ([9]; Table 12, with serum, pH 7.4, read-out: Minimal inhibitory concentrations, C. Neofor. With serum): 100 µM (≈ 170 µg/mL)
MIC ([9]; Table 12, without serum, pH 7.4, read-out: Minimal inhibitory concentrations, C. Neofor. Without serum): 12.5 µM (≈ 21.3 µg/mL)
MIC ([9]; Table 13, pH 5.5, with serum, read-out: Minimal inhibitory concentrations, C. Neofor. With serum): 50 µM (≈ 85.1 µg/mL)
MIC ([9]; Table 13, pH 5.5, without serum, read-out: Minimal inhibitory concentrations, C. Neofor. Without serum): 3.125 µM (≈ 5.32 µg/mL)
MIC ([6]; Table 12, with serum, pH 7.4, read-out: Minimal inhibitory concentrations, A. Fumig. With serum): 100 µM (≈ 170 µg/mL)
MIC ([6]; Table 12, without serum, pH 7.4, read-out: Minimal inhibitory concentrations, A. Fumig. Without serum): >100 µM
MIC ([6]; Table 13, pH 5.5, with serum, read-out: Minimal inhibitory concentrations, A. Fumig. With serum): 100 µM (≈ 170 µg/mL)
MIC ([6]; Table 13, pH 5.5, without serum, read-out: Minimal inhibitory concentrations, A. Fumig. Without serum): 6.25 µM (≈ 10.6 µg/mL)

Compound: CCCCCCCCCCCCCCCC(=O)N[C@@H](CCCCN)C(=O)N[C@@H](C)C(=O)N[C@H](C)C(=O)N[C@@H](CCCCN)C(N)=O [PA-KAAK, Palmitoyl-Lys-Ala-D-Ala-Lys-NH2] (Palmitoyl-KA[dA]K-NH2)
Minimal Inhibitory Concentration, E. coli-D21 [1]: 6.25 µM
Minimal Inhibitory Concentration, A. baumannii ATCC 19606 [7]: 100 µM
Minimal Inhibitory Concentration, P. aeruginosa ATCC 27853 [2]: 100 µM
Minimal Inhibitory Concentration, S. aureus ATCC 6538P [3]: 6.25 µM
MIC [4, 10]: 25 µM (≈ 16.3 µg/mL)
MIC [5]: 3.12 µM (≈ 2.04 µg/mL)
MIC [6, 11]: 12.5 µM (≈ 8.17 µg/mL)

Now from value to compound, other results behind:

MIC [4, 10]: >100 µM
MIC [5]: 6.25 µM (≈ 2.4 µg/mL)
MIC [6, 11]: >100 µM
Compound: CCCCCCCCCCCCCCCC(=O)N[C@@H](CCCCN)C(N)=O [PA-K]
Minimal Inhibitory Concentration, E. coli-D21 [1]: >100 µM
Minimal Inhibitory Concentration, A. baumannii ATCC 19606 [7]: >100 µM
Minimal Inhibitory Concentration, P. aeruginosa ATCC 27853 [2]: >100 µM
Minimal Inhibitory Concentration, S. aureus ATCC 6538P [3]: >100 µM

MIC [4, 10]: 50 µM (≈ 38.5 µg/mL)
MIC [5]: 12.5 µM (≈ 9.61 µg/mL)
MIC [6, 11]: 50 µM (≈ 38.5 µg/mL)
Compound: CCCCCCCCCCCCCCCC(=O)N[C@@H](CCCCN)C(=O)N[C@H](CCCCN)C(=O)N[C@@H](CCC(=O)O)C(=O)N[C@@H](CCCCN)C(N)=O [PA-KKEK, Palmitoyl-Lys-D-Lys-Glu-Lys-NH2] (Palmitoyl-K[dK]EK-NH2)
Minimal Inhibitory Concentration, E. coli-D21 [1]: 25 µM
Minimal Inhibitory Concentration, A. baumannii ATCC 19606 [7]: 100 µM
Minimal Inhibitory Concentration, P. aeruginosa ATCC 27853 [2]: 100 µM
Minimal Inhibitory Concentration, S. aureus ATCC 6538P [3]: 25 µM

MIC [4, 10]: 25 µM (≈ 19.2 µg/mL)
MIC [5]: 6.25 µM (≈ 4.81 µg/mL)
MIC [6, 11]: 12.5 µM (≈ 9.61 µg/mL)
Compound: CCCCCCCCCCCCCCCC(=O)N[C@@H](CCC(=O)O)C(=O)N[C@@H](CCCCN)C(=O)N[C@H](CCCCN)C(=O)N[C@@H](CCCCN)C(N)=O [PA-EKKK, Palmitoyl-Glu-Lys-D-Lys-Lys-NH2] (Palmitoyl-EK[dK]K-NH2)
Minimal Inhibitory Concentration, E. coli-D21 [1]: 25 µM
Minimal Inhibitory Concentration, A. baumannii ATCC 19606 [7]: >100 µM
Minimal Inhibitory Concentration, P. aeruginosa ATCC 27853 [2]: >100 µM
Minimal Inhibitory Concentration, S. aureus ATCC 6538P [3]: 12.5 µM
